# Measured values: patent publication US20240326041A1, “MICROFLUIDIC INDUCTION OF RESEARCH BASED NEURAL INJURY” (Worcester Polytechnic Institute, priority 2023, published 2024)
# pIC50: −log10 of the molar value.
# Assays:
# rTRPV4 = rTRPV4 (Rattus norvegicus, UniProt Q9ERZ8); conditions: commercially available TRPV4 antagonist, vendor description; cited from earlier work
# hTRPV4 = hTRPV4 (Homo sapiens, UniProt Q9HBA0); conditions: commercially available TRPV4 antagonist, vendor description; cited from earlier work
# C. elegans [1] = assay: Behavioral state after sonication-induced traumatic injury in microfluidic device; type: in vivo; conditions: 2 hour pre-exposure to 1 mM NAC; initial behavioral data
# Experimental: To injure animals, a continuous flow of buffer fluid is pumped through a microfluidic device 120 having serpentine microchannels in a bath sonicator-induced cavitation field. Animals are trapped in the flow and directed through the cavitation field. Exposure time is determined by channel length and flow velocity. […] Animals are recovered on an agar plate 130 for further transfer and analysis using widefield or high-resolution microscopy, or encapsulated in hydrogel and assessed over time in presence of various pharmacological agents. […] A batch of test subjects is isolated and introduced via the buffer fluid 114 and suitable coupling 116, as depicted at step 404. The microfluidic device 120 including the post array 140 receives the test subjects 152-N, as shown at step 406. Computer-controlled bath sonication induces titratable cavitation conditions within a microfluidic post-array 140. […] Upon removal, animals may be assessed visually for behavioral state according to the following definitions: • Paralysis: movement phenotype characterized by no obvious gross bodily movement. • Twitch: movement phenotype characterized by shaking or convulsions of the body or a substantial part of the main body of the animal.
# C. elegans [2] = assay: Recovery of neural activity (AWA calcium imaging) after sonication-induced injury; type: in vivo; conditions: wild-type C. elegans, NAC-induced recovery
# Experimental: FIGS. 8A-8C show results of test substances for treatment of an injury induced by the microfluidic device of FIGS. 1-4. Referring to FIGS. 8A-8C, one approach to therapeutic and/or prophylactic neural treatment includes two chemical agents that are diluted to physiological concentrations and administered in liquid form to the test animals using their food. Drug compositions are applied for a series of several hours to allow the biological function of the composition to manifest. Animals are removed from drug administration and allowed to immobilize under anesthetic for a period of ˜60 minutes in a microfluidic device before being injured. […] The described action of the drug composition is to inhibit the ability of calcium influx channels to operate for a period of time before and during the injury, allowing later recovery of the neuron response when the action of the drug composition ceases.
# Chain of rTRPV4 (Q9ERZ8 whole entry): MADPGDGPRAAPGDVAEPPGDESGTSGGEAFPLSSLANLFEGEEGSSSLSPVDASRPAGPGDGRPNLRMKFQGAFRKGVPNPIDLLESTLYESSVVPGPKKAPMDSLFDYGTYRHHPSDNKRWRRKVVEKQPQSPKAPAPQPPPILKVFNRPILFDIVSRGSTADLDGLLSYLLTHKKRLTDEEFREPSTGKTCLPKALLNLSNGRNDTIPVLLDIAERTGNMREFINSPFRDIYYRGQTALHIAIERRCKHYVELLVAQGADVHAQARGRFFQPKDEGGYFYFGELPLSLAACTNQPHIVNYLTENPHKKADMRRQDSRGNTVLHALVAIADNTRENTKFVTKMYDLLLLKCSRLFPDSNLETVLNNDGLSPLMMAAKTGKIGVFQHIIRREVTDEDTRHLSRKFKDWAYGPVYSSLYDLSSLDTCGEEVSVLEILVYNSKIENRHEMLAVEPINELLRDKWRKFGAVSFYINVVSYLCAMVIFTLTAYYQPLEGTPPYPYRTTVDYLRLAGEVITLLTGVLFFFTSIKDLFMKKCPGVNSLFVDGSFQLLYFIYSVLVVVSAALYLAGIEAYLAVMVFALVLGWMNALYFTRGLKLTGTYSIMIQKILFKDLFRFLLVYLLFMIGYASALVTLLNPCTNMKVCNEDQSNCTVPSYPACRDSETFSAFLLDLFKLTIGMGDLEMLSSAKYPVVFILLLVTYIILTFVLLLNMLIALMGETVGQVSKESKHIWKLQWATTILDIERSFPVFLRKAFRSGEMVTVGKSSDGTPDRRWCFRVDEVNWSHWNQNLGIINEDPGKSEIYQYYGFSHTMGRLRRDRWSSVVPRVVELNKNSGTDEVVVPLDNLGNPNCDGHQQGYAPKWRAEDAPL
# Chain of hTRPV4 (Q9HBA0 whole entry): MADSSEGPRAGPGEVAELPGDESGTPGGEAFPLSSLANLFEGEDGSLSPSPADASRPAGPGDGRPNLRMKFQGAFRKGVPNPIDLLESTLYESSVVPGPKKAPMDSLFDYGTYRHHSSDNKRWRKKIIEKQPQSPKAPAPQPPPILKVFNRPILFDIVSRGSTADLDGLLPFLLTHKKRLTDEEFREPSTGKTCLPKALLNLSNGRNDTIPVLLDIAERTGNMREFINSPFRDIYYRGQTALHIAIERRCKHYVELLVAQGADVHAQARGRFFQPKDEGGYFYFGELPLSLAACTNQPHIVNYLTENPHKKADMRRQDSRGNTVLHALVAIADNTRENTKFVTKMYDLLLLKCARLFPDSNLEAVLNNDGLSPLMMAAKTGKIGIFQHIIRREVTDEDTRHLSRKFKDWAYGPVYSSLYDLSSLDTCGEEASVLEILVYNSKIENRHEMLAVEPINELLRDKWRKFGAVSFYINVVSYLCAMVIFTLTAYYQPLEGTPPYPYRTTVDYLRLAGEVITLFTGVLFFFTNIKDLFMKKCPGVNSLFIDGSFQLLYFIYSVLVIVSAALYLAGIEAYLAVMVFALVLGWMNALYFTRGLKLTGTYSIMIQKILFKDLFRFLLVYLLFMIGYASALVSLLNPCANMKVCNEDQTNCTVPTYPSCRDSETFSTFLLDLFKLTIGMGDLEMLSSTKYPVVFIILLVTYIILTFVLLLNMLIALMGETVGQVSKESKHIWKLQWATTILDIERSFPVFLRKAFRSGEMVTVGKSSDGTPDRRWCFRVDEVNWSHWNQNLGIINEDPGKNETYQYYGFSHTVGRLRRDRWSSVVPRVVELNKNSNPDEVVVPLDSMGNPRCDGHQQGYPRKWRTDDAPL
Compound,pIC50 (rTRPV4),pIC50 (hTRPV4),behavioral vulnerability after injury (C. elegans [1]),calcium transients on recovery after injury (C. elegans [2])
O=C(NC1(c2ccccc2)CC1)c1c(CN2CCC(N3CCCCC3)CC2)c(-c2cccc(C(F)(F)F)c2)nc2cc(Br)ccc12 [GSK2193874],8.70,7.40,,
"CC(=O)N[C@@H](CS)C(=O)O [NAC, N-acetyl-L-cysteine]",,,lessens behavioral vulnerability,produces calcium transients similar to ‘osm’ mutants
